Data reported in patent publication US6673965B1, “Hydroxamic acid derivative as inhibitor of the formation of soluble human CD23” (SmithKline Beecham P.L.C., priority 1999, dated 2004).
“And” between values parts separate entries of the source, which are not always exact repeats. Equal entries are not always repeated. Where two headings read alike, the source gives them in different places.

Assays:
[1] = i.v. pharmacokinetic parameters and oral bioavailability in male Beagle dogs; assay type: in vivo; conditions: Dog
Description: (§1) Procedure 4: The bioavailability of test compounds was investigated using the following bio-equivalence studies.
A Study to Estimate the i.v. Pharmacokinetic Parameters and Oral Bioavailability in Male Beagle Dogs
This study was conducted using a crossover design on two separate study days, seven days apart. Three male Beagle dogs were used in this study. On each study day, a catheter was temporarily placed in a cephalic vein for blood sampling; on study day one only, a catheter was also temporarily placed in a saphenous vein for i.v. infusion.
(§2) On study day one, each animal received test compound (2.0 umol/kg target dose) as a 1-h intravenous infusion (4.0 mL/kg). The dose solution was prepared in 20% aqueous Encapsin® (pH=8.0) and contained 1% DMSO. Encapsin® (Cerestar USA Inc., Hammond, Ind.) is hydroxypropyl-beta-cyclodextrin, a cyclic oligosaccharide (7 glucose units) used to enhance solubility in the preparation of dose solutions that otherwise would require formulation using non-aqueous solvents.
On study day two, each animal received test compound (6.0 umol/kg target dose ) by oral gavage (8.0 mL/kg). The dose solution was prepared in 5% aqueous succinated porcine gelatin (pH=7.5) and contained 1% DMSO.
Plasma concentrations of test compound were quantified by LC/MSIMS (LLQ=10 ng/mL). Noncompartmental methods were used for analysis of plasma concentration versus time data.

[2] = i.v. pharmacokinetic parameters and oral bioavailability in male Cynomolgus monkeys; assay type: in vivo
Description: as §1
A Study to Estimate the i.v. Pharmacokinetic Parameters and Oral Bioavailability in Male Cynomolgus Monkeys
This study was conducted using a crossover design on two separate studv days, seven days apart. Three male Cynomolgus monkeys were used for this study. On both study days, a catheter was placed in a saphenous vein for collection of blood samples. On study day one, a catheter also was temporarily placed in a contralateral saphenous vein for i.v. infusion.
as §2, with “animal (fasted)” for “animal”
On study day two, each animal (fasted) received test compound (6.0 umol/kg target dose) by oral gavage (8.0 mL/kg). The dose solution was prepared in 5% aqueous succinated porcine gelatin (pH=8.0) and contained 1% DMSO.
Blood samples were obtained from the femoral vein catheter; plasma was isolated by centrifugation. Plasma concentrations of test compound were quantified by LC/MS/MS (LLQ=10 ng/mL). Noncompartmental methods were used for pharmacokinetic analysis of plasma concentration versus time data.

[3] = i.v. pharmacokinetic parameters and oral bioavailability in male Sprague Dawley rat; assay type: in vivo; conditions: for half-life: rat, 2 mg/kg, two-compartment model
Description: as §1
A Study to Estimate the i.v. Pharmacokinetic Parameters and Oral Bioavailability in Male Sprague Dawley Rat
This study was carried out using a crossover design on four separate study days. Three rats received surgically-implanted femoral vein catheters for infusion of test molecules at least three days prior to the start of the study. All doses in this study were prepared using crystalline test compound.
On study day one, the animals (fed) received test compound as a 30-min intravenous infusion at a target dosage of 4.0 umol/kg (4.0 mL/kg). The dose solution was prepared in 20% aqueous Encapsin® (pH=8.0) and contained 1% DMSO. Encapsin® (Cerestar USA Inc., Hammond, Ind.) is hydroxypropyl-beta-cyclodextrin, a cyclic oligosaccharide used to enhance solubility of compounds that otherwise would require formulation using non-aqueous solvents.
On study day two, the animals (fasted) received test compound as a solution at a target dosage of 8 umol/kg by oral gavage (16 mL/kg). The dose solution was prepared in 5% aqueous succinated porcine gelatin (pH=7.5) and contained 1% DMSO. Blood samples were collected from a lateral tail vein. A 25-uL aliquot of each whole blood sample was added to 25 uL of water and allowed to stand on ice for approximately 5 min to facilitate complete hemolysis; samples then were stored frozen until analvsis. Blood concentrations of test compound were quantified by LC/MS/MS (LLQ=10.0 ng/mL). […] Various compartmental models and weighting paradigms were employed; a two-compartment model with first-order elimination from the central compartment and iterative least squares weighting with a weight of 1/Y^2 provided the best fit to the observed data, according to standard model selection criteria (i.e., Akaike's Information Criterion, Schwartz Criterion, and sum of squared residuals). Pharmacokinetic parameters were calculated using the best-fit compartmental model; all calculations that required the use of AUC values (including bioavailability) were performed using the AUC recovered from noncompartmental analysis.

[4] = system: release of soluble CD23 from RPMI 8866 cell plasma membranes; experiment: RPMI 8866 cell membrane CD23 cleavage activity assay; assay type: biochemical, human; conditions: RPMI 8866 membranes, 37° C., sCD23 by EIA; read-out: IC50 (50% inhibition of production of sCD23)
Description: Procedure 1: The ability of test compounds to inhibit the release of soluble CD23 was investigated by use of the following procedure.
RPMI 8866 Cell Membrane CD23 Cleavage Activity Assay
Plasma membranes from RPMI 8866 cells, a human Epstein-Barr virus transformed B-cell line (Sarfati et al., Immunology 60 [1987] 539-547) expressing high levels of CD23 are purified using an aqueous extraction method. Cells resuspended in homogenization buffer (20 mM HEPES pH 7.4, 150 mM NaCl, 1.5 mM MgCl2, 1 mM DTT) are broken by N2 cavitation in a Parr bomb and the plasma membrane fraction mixed with other membranes is recovered by centrifugation at 10,000×g. […]
The fractionated membranes are incubated at 37° C. for times up to 4 hrs to produce fragments of CD23 which are separated from the membrane by filtration in 0.2 micron Durapore filter plates (Millipore) after quenching the assay with 5 uM Preparation 1 from P 30994. sCD23 released from the membrane is determined using the EIA kit from The Binding Site (Birmingham, UK) or a similar one utilizing MHM6 anti-CD23 mAb [Rowe et al., Int. […] The amount of soluble CD23 made by 0.5 ug membrane protein in a total volume of 50 ul phosphate-buffered saline is measured by EIA and compared to the amount made in the presence of various concentrations of inhibitors. […]

[5] = system: TNFα release from human monocytes; experiment: Inhibition of release of TNFα from human monocytes stimulated by LPS; assay type: cell-based; conditions: at 10 uM; LPS 200 ng/ml, 18-20 hrs
Description: Procedure 3: The ability of test compounds to inhibit TNF release was investigated using the following procedure.
Assay for Inhibition of Release of TNFα From Human Monocytes Stimulated by Lipopolysaccharide (LPS) Endotoxin
Human monocytes, cultured in RPMI 1640 medium supplemented with 10% fetal calf serum, are centrifuged at 1000×g for 5 min and then resuspended in medium at 2×10^6 cells/ml. The cell suspension is aliquoted in 24 well plates, 1 ml per well. Compounds to be tested are dissolved in neat dimethyl sulfoxide (DMSO) and added to culture with the final DMSO concentration at 0.1%. Compounds are added to cells in triplicate wells. TNF α release is stimulated by addition of LPS to the cells at a final concentration of 200 ng/ml. Appropriate control cultures are set up in triplicates also. The plates are incubated for 18-20 hrs at 37° C., 5% CO2, then centrifuged at 1000×g for 5 min. A specific ELISA for human TNFα (SmithKline Beecham) is used to measure TNF levels in the cell-free culture supernatants.

[6] = male, Beagle, plasma, iv dose = 0.96 mg/kg
[7] = Monkey, iv dose = 0.92 mg/kg, individual values, 0.92 mg/kg
[8] = male, Sprague Dawley, whole blood, iv, i.v. dose = 2.0 mg/kg

## CNC(=O)[C@@H](NC(=O)[C@H](Cc1ccc2ccccc2c1)[C@H](OC(C)C)C(=O)NO)C(C)(C)C [N′-[4-(N-hydroxyamino)-3S-isopropoxy-2R-(2-naphthylmethyl)succinyl]-S-tert-leucine methylamide]
[1]; iv dose = 0.96 mg/kg, individual values, 0.96 mg/kg
  T1/2: 4.2 h and 4.32 h and 0.817 h
[1]; oral gavage, po dose = 2.7 mg/kg vs iv 0.96 mg/kg
  Oral F: 29.0 ± 3.7%
[1]; [6]
  MRT: 1.07 h
  clearance: 10.6 ± 4.5 mL/min/kg
[1]; male, Beagle, plasma, iv dose = 0.96 mg/kg, read-out: Vdss
  Vd: 0.563 ± 0.204 L/kg
[1]; male, Beagle, 1-h i.v. infusion, iv dose = 0.96 mg/kg, plasma
  Cmax: 1410 ± 465 ng/mL
[2]; Monkey, fasted, oral gavage 2.8 mg/kg Solution vs iv 0.92 mg/kg, individual values
  Oral F: 21.1% and 6.0% and 22.5%
[2]; [7]
  MRT: 5.18 h and 0.992 h and 1.14 h
  T1/2: 11.5 h and 1.42 h and 3.47 h
  Vdss: 4.09 L/kg and 1.11 L/kg and 0.827 L/kg
[2]; male, cynomolgus monkey, 1-h i.v. infusion, iv dose = 0.92 mg/kg, plasma
  Cmax: 1010 ± 175 ng/mL
[2]; male, cynomolgus monkey, plasma, iv dose = 0.92 mg/kg
  clearance: 14.7 ± 3.6 mL/min/kg
[3]; fasted, oral gavage 3.7 mg/kg solution vs i.v. 2.0 mg/kg
  Oral F: 50.6 ± 10.6%
[3]; male, Sprague Dawley, whole blood, iv, i.v. dose = 2.0 mg/kg, read-out: T1/2 (α)
  half-life: 0.18 ± 0.0883 h
[3]; male, Sprague Dawley, whole blood, iv, i.v. dose = 2.0 mg/kg, read-out: T1/2 (β)
  half-life: 3.9 ± 2.32 h
[3]; male, Sprague Dawley, whole blood, iv, 30-min i.v. infusion, i.v. dose = 2.0 mg/kg, blood
  Cmax: 1340 ± 296 ng/mL
[3]; [8]
  MRT: 2.13 h
  clearance: 26.4 ± 8.5 mL/min/kg
[3]; male, Sprague Dawley, whole blood, iv, i.v. dose = 2.0 mg/kg, read-out: Vdss
  Vd: 3.25 ± 1.7 L/kg
[4]
  IC50: 60 nM
[5]
  effect on TNF release: no effect
